Reference: patent US20120157519A1 (priority 2009, published 2012)

Experiments:
[1] = system: phosphorylated Akt (PI3k-Akt signaling); assay type: cell-based, canine
[2] = system: H5N1 influenza virus; design: species or system BALB/c mice; conditions: mouse, in vivo
[3] = system: H1N1 (swine) influenza virus; assay type: cell-based, swine influenza H1N1v virus
[4] = system: YTS cells; assay type: cell-based
[5] = system: MDCK cells
[6] = system: INFγ; assay type: in vivo, mice; conditions: treated 24 hours before infection, six days after infection
[7] = system: mouse cytomegalovirus (MCMV); conditions: Sredni et al., Immunol Lett 1994; cited from earlier work
[8] = system: H1N1 influenza virus; design: species or system BALB/c mice; conditions: mouse, in vivo
[9] = system: primary NK cells; assay type: cell-based; conditions: 24 hours incubation, 0.1-5 μg/ml, supernatant ELISA
[10] = system: 721.221 target cells; assay type: cell-based; conditions: effector cells pre-incubated 24 hours with AS101; high concentrations less effective than moderate
[11] = system: H5N1 virus; assay type: cell-based
[12] = system: human immunodeficiency virus type 1 (HIV-1); conditions: Vonsover et al., AIDS Res Hum Retroviruses 1992; cited from earlier work

| SMILES | level of phosphorylated Akt, AS101 treatment alone [1] | level of phosphorylated Akt, cells infected with H5N1 virus ([1]; MDCK cells, 2 μg/ml, 10^2×TCID50 H5N1, 24 hours) | H5N1 virus in infected mice (lung titer, real-time RT-PCR) [2] | H5N1 virus titers in the lungs, each tested administration time [2] | body weight loss after infection ([2]; ip) | H1N1 virus infection, administered concomitantly with the virus [3] | H1N1 virus infection, each tested administration time [3] | replication of H1N1 influenza virus (viral titer by ELISA) [3] | AS101 concentration at which the effect on IFN-γ secretion decreased [4] | IFN-γ secretion by YTS cells [4] | toxicity to the cells (MTT) [5] | interferon secretion in lungs of H5N1 infected mice [6] | effect against mouse cytomegalovirus (MCMV) [7] | H1N1 virus in infected mice (lung titer, real-time RT-PCR) [8] | H1N1 virus titers in the lungs, each tested administration time [8] | IFN-γ secretion by primary NK cells [9] | NK killing of target cells [10] | protection of cells from viral infection by supernatant of treated cells [11] | effect against human immunodeficiency virus type 1 (HIV-1) [12] |
| --- | --- | --- | --- | --- | --- | --- | --- | --- | --- | --- | --- | --- | --- | --- | --- | --- | --- | --- | --- |
| Cl[TeH]1(Cl)(Cl)OCCO1 [AS101, ammonium trichloro(dioxyethylene-O,O′)tellurate] | increased | dramatically reduced levels | significant inhibition | significantly reduced | weight loss was reduced somewhat | strongest inhibition | inhibition | significant inhibition | above 1 μg/ml | increased secretion | not toxic | restored interferon secretion to the levels observed in uninfected mice | inhibitory effect | significant inhibition | significantly reduced | increased secretion | increased NK killing | can protect cells from viral infection | inhibitory effect |
| CCOC(=O)C1=C[C@@H](OC(CC)CC)[C@H](NC(C)=O)[C@@H](N)C1 [oseltamivir, reference compound] | – | – | – | – | – | – | – | – | – | – | – | – | – | Inhibition | – | – | – | – | – |
